Drawing on BindingDB's records for doi:10.1021/acs.jmedchem.7b00782 (Jadavpur University, 2018), this text covers Ki for four compounds.

This assay can be described thus: Inhibition of LAP (unknown origin).

For orientation: Ki means a measure of affinity in units of concentration, obtained from inhibition or displacement. As for `CC(N)B1OC(C)(C)C(C)(C)O1` (centres undefined), affinity was put at a Ki of 90 µM.
`CC1(C)OB(C(N)Cc2ccccc2)OC1(C)C` (centres undefined) gave a Ki of 0.05 µM. This Ki lies about 1800-fold lower than the previous one.
`CC(C)CC(N)P(=O)(O)C(=O)N[C@H](CC(C)C)C(=O)O` (some centres undefined) showed an inhibition constant (Ki) of 56 µM.
For the compound `CC(C)CC(N)B1OC(C)(C)C(C)(C)O1` (centres undefined), the inhibition constant (Ki) amounted to 1.3 µM.
